“Also recorded” adds a separate entry of the source. Like-named read-outs stand apart in the source and are kept apart here.
Key:
[1] = system: E. coli BL21(DE3)/pET-SIM-1; experiment: Susceptibility testing, SIM-1-producing E. coli; assay type: cell-based; details: Escherichia coli
Procedure: (§1) MICs were determined via the microdilution method according to the CLSI guidelines ([38]). In brief, 5 × 10^4 bacterial cells were inoculated in 100 μl of cation-adjusted Mueller-Hinton broth (Becton, Dickinson and Company, Franklin Lakes, NJ) containing the β-lactams and appropriately diluted inhibitors. The final concentration of DMSO was maintained at 2% in the assays. The tested plates were then incubated at 35°C for 16 to 20 h. The MIC value was determined as the lowest concentration of tested β-lactams where no bacterial growth was visibly observed. The optical density at 600 nm (OD600) value was measured using a plate reader for drawing the heat maps. The FIC index value was calculated using the following equation: FIC index=MIC of β-lactam with inhibitor/MIC of β-lactam alone+MIC of inhibitor with β-lactam/MIC of inhibitor alone

[2] = system: NDM-type MBL-producing Enterobacteriaceae; experiment: Susceptibility testing, 14 NDM-type MBL-producing Enterobacteriaceae isolates; assay type: cell-based; details: 10 μg/ml SFC, NDM-producing Enterobacteriaceae
Procedure: as §1

[3] = system: IMP-type MBL-producing Enterobacteriaceae; experiment: Susceptibility testing, 19 IMP-type MBL-producing Enterobacteriaceae isolates; assay type: cell-based; details: for Isolates whose MPM MIC decreased to susceptible criteria (MIC ≤1 μg/ml): IMP-producing isolates
Procedure: as §1

[4] = Human liver microsomal stability test; assay type: in vitro ADME; details: 100 nM compound, 0.1 mg protein/ml, 35 min, 37°C
Procedure: Human liver microsomal stability tests were performed by Sumika Chemical Analysis Service (Osaka, Japan). Compounds (100 nM) were incubated with human liver microsomes (0.1 mg protein/ml) for 35 min at 37°C and subjected to liquid chromatography-tandem mass spectrometry (LC-MS/MS) for quantification of the loss of the tested compounds.

IMP-1 = target: T1, IMP-1 (Serratia marcescens, UniProt P52699); experiment: Inhibition of IPM hydrolysis by purified IMP-1, Ki by Lineweaver-Burk plots; assay type: biochemical
T1 construct: made in house
T1 sequence (P52699 19-246 limits assumed): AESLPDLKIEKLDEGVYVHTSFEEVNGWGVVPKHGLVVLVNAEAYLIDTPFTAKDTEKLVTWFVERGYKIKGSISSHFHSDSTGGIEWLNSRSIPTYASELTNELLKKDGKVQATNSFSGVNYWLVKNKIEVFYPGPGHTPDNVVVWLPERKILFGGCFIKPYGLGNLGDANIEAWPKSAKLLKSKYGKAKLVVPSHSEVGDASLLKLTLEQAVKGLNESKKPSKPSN
Procedure: MBL (10 nM) was mixed with the inhibitors and incubated for 5 min at 30°C. IPM was added to reach a concentration of 150 μM, and the velocity of IPM hydrolysis was monitored at 298 nm. The assay was performed at 30°C using 10 mM HEPES (pH 7.5) buffer containing 200 mM NaCl and 50 μg/ml bovine serum albumin (BSA) for IMP-1, NDM-1, VIM-2, and SMB-1. For SFH-1 and L1, another 10 mM HEPES (pH 7.5) buffer containing 200 mM NaCl, 20 μM ZnSO4, and 50 μg/ml BSA was used.
Initial velocities (vo) were measured after varying the concentrations of IPM and inhibitors, and inverse velocities (1/vo) were plotted against inverse IPM concentrations […]. Lineweaver-Burk plots were constructed to obtain the inhibition constant (Ki) with the competitive inhibition model using the SigmaPlot 13 suite (Hulinks).

E. coli DH5α/pBC-VIM-2 = experiment: Susceptibility and checkerboard testing, VIM-2-producing E. coli; assay type: cell-based, Escherichia coli; details: for MIC: Escherichia coli
Procedure: as §1
Unless noted otherwise, the FIC index was defined as the lowest value among all obtained values. The synergistic effect was defined as the effect observed when the FIC index value was ≤0.5.

CMY-2 = target: T2, CMY-2 (Klebsiella pneumoniae, UniProt Q48434); experiment: Serine β-lactamase inhibition, nitrocefin hydrolysis by CMY-2; assay type: biochemical; details: nitrocefin 100 μM
T2 construct: made in house; host or cells: E. coli BL21(DE3)
T2 sequence (Q48434 21-381, species assumed): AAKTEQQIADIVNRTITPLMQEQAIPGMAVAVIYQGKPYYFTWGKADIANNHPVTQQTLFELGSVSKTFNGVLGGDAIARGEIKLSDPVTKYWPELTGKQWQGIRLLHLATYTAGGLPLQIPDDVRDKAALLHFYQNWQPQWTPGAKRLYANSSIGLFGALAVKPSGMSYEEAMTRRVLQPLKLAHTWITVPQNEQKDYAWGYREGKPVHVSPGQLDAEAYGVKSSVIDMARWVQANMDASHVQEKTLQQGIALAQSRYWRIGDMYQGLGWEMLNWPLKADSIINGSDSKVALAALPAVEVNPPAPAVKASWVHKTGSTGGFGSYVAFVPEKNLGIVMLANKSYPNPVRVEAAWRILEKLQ
Procedure: The serine–β-lactamases (1 nM) TLA-3, CMY-2, and OXA-48 were mixed with SFC in 100 mM phosphate buffer (pH 7.0) and incubated for 5 min at 30°C. Nitrocefin was added to reach a concentration of 100 μM, and the velocity of nitrocefin hydrolysis was monitored at 482 nm. Avibactam (MedKoo Bioscience, Morrisville, NC) was used as an inhibitor for serine–β-lactamases. The inhibitory effect of SFC against ACE was evaluated using ACE Kit-WST (Dojindo Laboratories, Kumamoto, Japan). The residual ACE activity was calculated as described in the manufacturer’s protocol as follows: [1 − (Acontrol − Asample)/(Acontrol − Abackground)] × 100. EDTA solution (Nippon Gene, Tokyo, Japan) was used as an ACE inhibitor.

Compound: Cc1oc(C)c(S(N)(=O)=O)c1C(=O)O [SFC, 2,5-dimethyl-4-sulfamoylfuran-3-carboxylic acid]
- MIC ([1]; read-out: MIC of MPM + inhibitor (8 μg/ml)): 2 µg/mL
- MIC ([1]; read-out: MIC of MPM + inhibitor (32 μg/ml)): 1 µg/mL
- Reduction of MPM MIC50 [2]: 8 fold
- Reduction of MPM MIC50 ([3]; 10 μg/ml SFC, IMP-producing Enterobacteriaceae): 128 fold
- Isolates whose MPM MIC decreased to susceptible criteria (MIC ≤1 μg/ml) ([3]; addition of 10 μg/ml SFC): 16/19
- Isolates whose MPM MIC decreased to susceptible criteria (MIC ≤1 μg/ml) ([3]; addition of 50 μg/ml SFC): 17/19
- Stability in human liver microsomes [4]: did not lead to structural changes; also recorded: high stability
- Ki (IMP-1): 220 nM
- MIC ceftazidime + 2 μg/mL compound (E. coli DH5α/pBC-VIM-2; E. coli DH5α/pBC-VIM-2): 16 µg/mL
- Reduction in CAZ MIC (E. coli DH5α/pBC-VIM-2; E. coli DH5α/pBC-VIM-2, 2 μg/ml compound): no reduction
- MIC (E. coli DH5α/pBC-VIM-2; read-out: MIC of CAZ + inhibitor (8 μg/ml)): 4 µg/mL
- MIC (E. coli DH5α/pBC-VIM-2; read-out: MIC of CAZ + inhibitor (32 μg/ml)): 2 µg/mL
- FIC index (E. coli DH5α/pBC-VIM-2; checkerboard with CAZ, E. coli DH5α/pBC-VIM-2, lowest value): 0.31
- Inhibitory effect against CMY-2 (class C) (CMY-2): nonexistent or insufficient
